# According to the kinase profiling compilation of Christmann-Franck et al. (2016):
# What was measured:
# Experiment in all cases: radiometric filter-binding kinase assay, Kinaseprofiler
# [1] = target: CAMK2B (human) (UniProt Q13554); conditions: ATP 15 µM
# [2] = target: CDC42BPA (human) (UniProt Q5VT25); conditions: ATP 45 µM
# [3] = target: CDK2 CCNA2 (human) (UniProt P24941+P20248); conditions: ATP 45 µM
# [4] = target: CDK2 CCNE1 (human) (UniProt P24941+P24864); conditions: ATP 120 µM
# [5] = target: CDK7 CCNH MNAT1 (human) (UniProt P50613+P51948+P51946); conditions: ATP 90 µM
# [6] = target: CSK (human) (UniProt P41240); conditions: ATP 15 µM
# [7] = target: DMPK (human) (UniProt Q09013); conditions: ATP 10 µM
# [8] = target: EPHA3 (human) (UniProt P29320); conditions: ATP 120 µM
# [9] = target: EPHA7 (human) (UniProt Q15375); conditions: ATP 90 µM
# [10] = target: ERBB4 (human) (UniProt Q15303); conditions: ATP 15 µM
# [11] = target: FER (human) (UniProt P16591); conditions: ATP 70 µM
# [12] = target: FGFR2 (human) (UniProt P21802); conditions: ATP 90 µM
# [13] = target: GCK (human) (UniProt Q12851); conditions: ATP 200 µM
# [14] = target: HIPK1 (human) (UniProt Q86Z02); conditions: ATP 45 µM
# [15] = target: MAP2K7 (human) (UniProt O14733); conditions: ATP 10 µM
# [16] = target: MAPK1 (human) (UniProt P28482); conditions: ATP 155 µM
# [17] = target: MAPK10 (human) (UniProt P53779); conditions: ATP 10 µM
# [18] = target: MTOR (human) (UniProt P42345); conditions: ATP 70 µM
# [19] = target: PAK6 (human) (UniProt Q9NQU5); conditions: ATP 10 µM
# [20] = target: PAK7 (human) (UniProt Q9P286); conditions: ATP 15 µM
# [21] = target: PASK (human) (UniProt Q96RG2); conditions: ATP 15 µM
# [22] = target: PRKCD (human) (UniProt Q05655); conditions: ATP 15 µM
# [23] = target: PRKCI (human) (UniProt P41743); conditions: ATP 155 µM
# [24] = target: PTK6 (human) (UniProt Q13882); conditions: ATP 15 µM
# [25] = target: ROCK1 (human) (UniProt Q13464); conditions: ATP 70 µM
# [26] = target: SIK1 (human) (UniProt P57059); conditions: ATP 45 µM
# [27] = target: STK17A (human) (UniProt Q9UEE5); conditions: ATP 10 µM
# [28] = target: SYK (human) (UniProt P43405); conditions: ATP 15 µM
# [29] = target: TAOK1 (human) (UniProt Q7L7X3); conditions: ATP 10 µM
# [30] = target: TNK2 (human) (UniProt Q07912); conditions: ATP 70 µM
# [31] = target: VRK2 (human) (UniProt Q86Y07); conditions: ATP 70 µM
# [32] = target: WNK2 (human) (UniProt Q9Y3S1); conditions: ATP 200 µM
# Chain of VRK2 (human) (Q86Y07 whole entry, looked up): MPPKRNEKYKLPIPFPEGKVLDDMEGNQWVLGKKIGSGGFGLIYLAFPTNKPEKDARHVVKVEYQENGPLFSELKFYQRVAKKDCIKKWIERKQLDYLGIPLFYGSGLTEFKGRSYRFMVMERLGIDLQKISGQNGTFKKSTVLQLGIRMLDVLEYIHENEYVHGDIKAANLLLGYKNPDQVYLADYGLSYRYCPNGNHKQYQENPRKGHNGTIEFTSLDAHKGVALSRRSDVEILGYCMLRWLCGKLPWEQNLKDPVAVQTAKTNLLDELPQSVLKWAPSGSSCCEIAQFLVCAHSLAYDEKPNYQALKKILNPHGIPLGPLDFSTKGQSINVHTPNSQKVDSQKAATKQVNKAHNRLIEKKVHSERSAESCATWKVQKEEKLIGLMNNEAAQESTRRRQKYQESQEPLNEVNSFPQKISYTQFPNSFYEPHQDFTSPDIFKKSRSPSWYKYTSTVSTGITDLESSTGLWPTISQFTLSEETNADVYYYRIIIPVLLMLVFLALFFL
# Chain of ROCK1 (human) (Q13464 whole entry, looked up): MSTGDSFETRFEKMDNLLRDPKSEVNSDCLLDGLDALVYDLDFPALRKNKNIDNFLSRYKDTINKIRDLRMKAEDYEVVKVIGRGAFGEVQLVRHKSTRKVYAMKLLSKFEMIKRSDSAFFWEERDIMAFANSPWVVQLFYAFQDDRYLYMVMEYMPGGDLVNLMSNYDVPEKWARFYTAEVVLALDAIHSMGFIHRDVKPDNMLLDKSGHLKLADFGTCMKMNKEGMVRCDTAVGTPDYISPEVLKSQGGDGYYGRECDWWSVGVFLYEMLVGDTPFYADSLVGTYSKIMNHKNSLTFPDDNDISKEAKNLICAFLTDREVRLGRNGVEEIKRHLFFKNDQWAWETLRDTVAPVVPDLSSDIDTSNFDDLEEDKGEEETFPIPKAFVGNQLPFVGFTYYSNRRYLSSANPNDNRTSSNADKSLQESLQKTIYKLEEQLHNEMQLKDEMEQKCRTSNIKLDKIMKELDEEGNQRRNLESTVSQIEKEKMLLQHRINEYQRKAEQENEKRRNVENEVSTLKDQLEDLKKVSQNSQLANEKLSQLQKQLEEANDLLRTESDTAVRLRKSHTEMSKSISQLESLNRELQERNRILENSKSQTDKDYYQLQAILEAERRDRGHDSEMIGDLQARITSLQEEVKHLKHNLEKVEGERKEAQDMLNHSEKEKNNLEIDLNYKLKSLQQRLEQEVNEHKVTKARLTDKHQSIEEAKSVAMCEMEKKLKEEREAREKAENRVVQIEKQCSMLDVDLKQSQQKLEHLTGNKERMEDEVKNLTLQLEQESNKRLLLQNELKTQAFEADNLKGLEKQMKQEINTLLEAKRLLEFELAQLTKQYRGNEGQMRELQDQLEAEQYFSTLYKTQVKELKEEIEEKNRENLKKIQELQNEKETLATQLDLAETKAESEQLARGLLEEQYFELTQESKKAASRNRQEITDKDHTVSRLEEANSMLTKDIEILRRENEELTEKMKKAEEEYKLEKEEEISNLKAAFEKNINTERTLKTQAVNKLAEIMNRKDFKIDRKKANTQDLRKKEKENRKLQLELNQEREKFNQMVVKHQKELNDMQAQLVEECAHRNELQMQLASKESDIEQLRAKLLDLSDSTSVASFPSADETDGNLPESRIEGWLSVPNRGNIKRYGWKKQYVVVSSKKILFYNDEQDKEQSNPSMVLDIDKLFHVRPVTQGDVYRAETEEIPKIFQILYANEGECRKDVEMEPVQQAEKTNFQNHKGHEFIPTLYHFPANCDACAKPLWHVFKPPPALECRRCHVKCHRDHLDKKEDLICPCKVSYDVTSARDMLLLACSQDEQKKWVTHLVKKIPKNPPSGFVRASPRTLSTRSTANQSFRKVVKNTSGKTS
# Chain of FER (human) (P16591 whole entry, looked up): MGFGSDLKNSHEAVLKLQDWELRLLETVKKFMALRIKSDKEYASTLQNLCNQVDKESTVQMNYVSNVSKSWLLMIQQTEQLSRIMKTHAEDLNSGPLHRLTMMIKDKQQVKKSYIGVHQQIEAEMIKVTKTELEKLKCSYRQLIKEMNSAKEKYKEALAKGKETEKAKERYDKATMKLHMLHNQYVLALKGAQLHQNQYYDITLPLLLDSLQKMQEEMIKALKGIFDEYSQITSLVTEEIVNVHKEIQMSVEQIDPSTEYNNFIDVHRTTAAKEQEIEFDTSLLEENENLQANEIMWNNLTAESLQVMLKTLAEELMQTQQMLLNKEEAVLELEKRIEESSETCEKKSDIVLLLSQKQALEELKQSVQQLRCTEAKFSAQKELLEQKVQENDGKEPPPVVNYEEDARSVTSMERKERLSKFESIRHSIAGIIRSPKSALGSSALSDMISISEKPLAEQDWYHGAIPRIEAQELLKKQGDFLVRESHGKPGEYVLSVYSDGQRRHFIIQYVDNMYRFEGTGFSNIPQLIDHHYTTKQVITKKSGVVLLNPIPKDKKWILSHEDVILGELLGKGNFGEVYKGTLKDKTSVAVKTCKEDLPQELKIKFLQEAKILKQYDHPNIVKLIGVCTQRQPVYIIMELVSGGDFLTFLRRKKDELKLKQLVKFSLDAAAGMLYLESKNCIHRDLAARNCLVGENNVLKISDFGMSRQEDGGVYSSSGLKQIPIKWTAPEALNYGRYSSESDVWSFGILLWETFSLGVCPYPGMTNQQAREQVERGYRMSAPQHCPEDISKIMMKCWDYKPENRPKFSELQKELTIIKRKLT
# Chain of GCK (human) (Q12851 whole entry, looked up): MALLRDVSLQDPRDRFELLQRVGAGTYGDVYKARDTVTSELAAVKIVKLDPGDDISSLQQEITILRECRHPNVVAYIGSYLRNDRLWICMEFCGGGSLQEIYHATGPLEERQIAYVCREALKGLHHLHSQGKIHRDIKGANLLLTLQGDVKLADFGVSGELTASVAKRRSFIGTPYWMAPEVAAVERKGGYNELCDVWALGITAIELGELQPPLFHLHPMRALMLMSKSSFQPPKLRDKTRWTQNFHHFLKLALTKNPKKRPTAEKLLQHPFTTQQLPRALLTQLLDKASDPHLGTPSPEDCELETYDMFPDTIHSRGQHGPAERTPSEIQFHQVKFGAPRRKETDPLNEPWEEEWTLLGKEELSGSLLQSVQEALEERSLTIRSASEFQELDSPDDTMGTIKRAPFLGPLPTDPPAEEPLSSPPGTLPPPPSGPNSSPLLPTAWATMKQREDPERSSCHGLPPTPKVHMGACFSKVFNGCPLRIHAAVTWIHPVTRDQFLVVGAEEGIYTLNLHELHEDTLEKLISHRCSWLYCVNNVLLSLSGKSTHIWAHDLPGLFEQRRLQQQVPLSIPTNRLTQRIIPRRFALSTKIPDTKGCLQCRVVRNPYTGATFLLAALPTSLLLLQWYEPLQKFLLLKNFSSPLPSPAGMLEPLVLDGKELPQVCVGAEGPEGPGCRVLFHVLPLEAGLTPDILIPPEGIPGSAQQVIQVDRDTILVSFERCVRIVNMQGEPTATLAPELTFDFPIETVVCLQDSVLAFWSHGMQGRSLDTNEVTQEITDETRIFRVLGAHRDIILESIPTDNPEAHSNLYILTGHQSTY
# Chain of HIPK1 (human) (Q86Z02 whole entry, looked up): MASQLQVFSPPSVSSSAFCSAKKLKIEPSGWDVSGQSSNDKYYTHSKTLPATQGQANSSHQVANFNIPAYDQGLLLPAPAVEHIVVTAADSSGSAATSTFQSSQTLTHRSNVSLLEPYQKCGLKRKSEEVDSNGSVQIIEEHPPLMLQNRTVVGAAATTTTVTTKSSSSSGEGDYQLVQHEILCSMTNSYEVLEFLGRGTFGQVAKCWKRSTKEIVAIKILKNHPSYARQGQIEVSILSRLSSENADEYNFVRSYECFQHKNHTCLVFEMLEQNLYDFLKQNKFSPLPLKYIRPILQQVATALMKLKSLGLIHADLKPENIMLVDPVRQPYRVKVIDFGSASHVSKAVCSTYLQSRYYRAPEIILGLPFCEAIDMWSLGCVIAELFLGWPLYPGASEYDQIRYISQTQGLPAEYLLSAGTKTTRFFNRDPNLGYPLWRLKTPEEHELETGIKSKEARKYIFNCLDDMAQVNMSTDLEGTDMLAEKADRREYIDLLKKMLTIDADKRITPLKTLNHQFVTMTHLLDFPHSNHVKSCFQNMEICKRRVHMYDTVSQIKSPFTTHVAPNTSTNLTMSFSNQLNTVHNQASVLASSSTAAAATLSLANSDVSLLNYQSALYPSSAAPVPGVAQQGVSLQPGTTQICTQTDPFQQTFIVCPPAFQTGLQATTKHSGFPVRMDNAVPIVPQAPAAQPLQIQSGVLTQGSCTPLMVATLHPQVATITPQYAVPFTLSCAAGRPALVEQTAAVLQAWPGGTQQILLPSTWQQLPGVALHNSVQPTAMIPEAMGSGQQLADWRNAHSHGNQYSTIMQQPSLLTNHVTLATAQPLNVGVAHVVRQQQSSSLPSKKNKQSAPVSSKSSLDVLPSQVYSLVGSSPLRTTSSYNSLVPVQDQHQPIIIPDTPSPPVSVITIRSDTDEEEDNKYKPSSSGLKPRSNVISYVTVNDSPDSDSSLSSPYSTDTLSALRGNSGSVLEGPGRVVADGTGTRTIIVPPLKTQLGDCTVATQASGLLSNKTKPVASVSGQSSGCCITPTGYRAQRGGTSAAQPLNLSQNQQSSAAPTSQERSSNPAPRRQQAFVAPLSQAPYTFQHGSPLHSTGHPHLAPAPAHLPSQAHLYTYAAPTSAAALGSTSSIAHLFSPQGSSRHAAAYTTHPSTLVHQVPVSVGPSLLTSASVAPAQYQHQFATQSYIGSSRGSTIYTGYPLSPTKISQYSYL
# Chain of MAPK1 (human) (P28482 whole entry, looked up): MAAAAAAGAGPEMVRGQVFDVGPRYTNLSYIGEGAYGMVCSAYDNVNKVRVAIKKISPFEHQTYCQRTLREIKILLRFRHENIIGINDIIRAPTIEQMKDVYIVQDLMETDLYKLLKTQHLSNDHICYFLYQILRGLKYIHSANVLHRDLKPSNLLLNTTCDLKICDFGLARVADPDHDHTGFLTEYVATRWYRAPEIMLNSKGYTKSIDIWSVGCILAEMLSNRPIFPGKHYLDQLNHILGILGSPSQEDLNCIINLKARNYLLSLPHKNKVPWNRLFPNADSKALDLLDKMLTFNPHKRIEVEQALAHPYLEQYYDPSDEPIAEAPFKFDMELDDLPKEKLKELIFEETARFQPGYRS
smiles,measurement,setting,value
O=C1Nc2ccccc2/C1=C1\Nc2ccccc2\C1=N/O,residual activity,[1]; compound 1.0 µM,33%
same,residual activity,[1]; compound 10.0 µM,11%
same,residual activity,[2]; compound 1.0 µM,142%
same,residual activity,[2]; compound 10.0 µM,135%
same,residual activity,[3]; compound 1.0 µM,19%
same,residual activity,[3]; compound 10.0 µM,5%
same,residual activity,[4]; compound 1.0 µM,6%
same,residual activity,[4]; compound 10.0 µM,-1%
same,residual activity,[5]; compound 1.0 µM,42%
same,residual activity,[5]; compound 10.0 µM,16%
same,residual activity,[6]; compound 1.0 µM,101%
same,residual activity,[6]; compound 10.0 µM,78%
same,residual activity,[7]; compound 1.0 µM,109%
same,residual activity,[7]; compound 10.0 µM,83%
same,residual activity,[8]; compound 1.0 µM,58%
same,residual activity,[8]; compound 10.0 µM,9%
same,residual activity,[9]; compound 1.0 µM,70%
same,residual activity,[9]; compound 10.0 µM,15%
same,residual activity,[10]; compound 1.0 µM,107%
same,residual activity,[10]; compound 10.0 µM,99%
same,residual activity,[11]; compound 1.0 µM,70%
same,residual activity,[11]; compound 10.0 µM,53%
same,residual activity,[12]; compound 1.0 µM,22%
same,residual activity,[12]; compound 10.0 µM,2%
same,residual activity,[13]; compound 1.0 µM,13%
same,residual activity,[13]; compound 10.0 µM,1%
same,residual activity,[14]; compound 1.0 µM,90%
same,residual activity,[14]; compound 10.0 µM,73%
same,residual activity,[15]; compound 1.0 µM,52%
same,residual activity,[15]; compound 10.0 µM,7%
same,residual activity,[16]; compound 1.0 µM,104%
same,residual activity,[16]; compound 10.0 µM,103%
same,residual activity,[17]; compound 1.0 µM,7%
same,residual activity,[17]; compound 10.0 µM,-2%
same,residual activity,[18]; compound 1.0 µM,100%
same,residual activity,[18]; compound 10.0 µM,98%
same,residual activity,[19]; compound 1.0 µM,63%
same,residual activity,[19]; compound 10.0 µM,37%
same,residual activity,[20]; compound 1.0 µM,64%
same,residual activity,[20]; compound 10.0 µM,33%
same,residual activity,[21]; compound 1.0 µM,112%
same,residual activity,[21]; compound 10.0 µM,76%
same,residual activity,[22]; compound 1.0 µM,85%
same,residual activity,[22]; compound 10.0 µM,80%
same,residual activity,[23]; compound 1.0 µM,96%
same,residual activity,[23]; compound 10.0 µM,105%
same,residual activity,[24]; compound 1.0 µM,91%
same,residual activity,[24]; compound 10.0 µM,23%
same,residual activity,[25]; compound 1.0 µM,108%
same,residual activity,[25]; compound 10.0 µM,92%
same,residual activity,[26]; compound 1.0 µM,43%
same,residual activity,[26]; compound 10.0 µM,8%
same,residual activity,[27]; compound 1.0 µM,6%
same,residual activity,[27]; compound 10.0 µM,4%
same,residual activity,[28]; compound 1.0 µM,49%
same,residual activity,[28]; compound 10.0 µM,60%
same,residual activity,[29]; compound 1.0 µM,83%
same,residual activity,[29]; compound 10.0 µM,39%
same,residual activity,[30]; compound 1.0 µM,34%
same,residual activity,[30]; compound 10.0 µM,4%
same,residual activity,[31]; compound 1.0 µM,71%
same,residual activity,[31]; compound 10.0 µM,28%
same,residual activity,[32]; compound 1.0 µM,90%
same,residual activity,[32]; compound 10.0 µM,55%
